From patent publication US5942523A, “Compounds which are selective antagonists of the human NK3 receptor and their use as medicinal products and diagnostic tools” (Sanofi, priority 1994, dated 1999)
Residues, ends and D or L forms follow the SMILES beside them.

Key:
[1] = molecular target: T1, human NK3 receptor (Homo sapiens, UniProt P29371); assay: binding of [^125 I]His[MePhe^7 ]NKB to the cloned human NK3 receptors expressed by CHO cells; details: from comparison of Ki values for human NK3 and other tachykinin receptors
T1 construct: expressed in transfected cells; host or cells: CHO cells
T1 sequence (P29371 1-465): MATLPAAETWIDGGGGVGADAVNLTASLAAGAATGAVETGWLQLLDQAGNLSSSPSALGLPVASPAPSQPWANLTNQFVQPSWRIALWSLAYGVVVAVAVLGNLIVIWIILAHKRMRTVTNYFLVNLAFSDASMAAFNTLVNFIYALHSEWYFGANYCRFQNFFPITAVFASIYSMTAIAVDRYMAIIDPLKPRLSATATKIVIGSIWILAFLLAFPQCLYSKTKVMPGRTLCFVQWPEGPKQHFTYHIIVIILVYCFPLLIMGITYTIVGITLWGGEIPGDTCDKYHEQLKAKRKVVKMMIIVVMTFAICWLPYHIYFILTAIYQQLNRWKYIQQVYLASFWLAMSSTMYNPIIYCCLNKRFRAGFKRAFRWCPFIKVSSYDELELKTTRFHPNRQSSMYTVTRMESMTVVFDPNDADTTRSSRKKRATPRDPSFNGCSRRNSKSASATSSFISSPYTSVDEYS
Description: In studies on the binding of a ligand, the inhibition constant Ki is defined by the Cheng-Prusoff equation (in Receptor Binding in Drug Research, eds. R. A. O'BRIEN. Marcel Dekker, New York, 1986): [formula] [L]: ligand concentration Kd: dissociation constant of the ligand,
The affinity of the compounds of formula (I') for the tachykinin receptors was evaluated in vitro by several biochemical assays using radioligands:
3) The binding of [^125 I]His[MePhe^7 ]NKB to the NK3 receptors of rat cerebral cortex, of guinea pig cerebral cortex and of gerbil cerebral cortex as well as to the cloned human NK3 receptors expressed by CHO cells (Buell et al., FEBS Letters, 1992, 299, 90-95).
The assays were carried out according to X. Emonds-Alt et al. (Eur. J. Pharmacol., 1993, 250, 403-413).

[2] = test system: NK3 receptor; assay: rotating behavior induced by intrastriatal administration of senktide in gerbils; type: in vivo; details: unilateral application in the gerbil striatum; agonist alone
Description: (§1) The compounds according to the present invention were also evaluated in vivo on two animal models.

[3] = test system: NK3 receptor; assay: hypertension induced by intravenous or intracerebroventricular injection of senktide in guinea pigs; type: in vivo, guinea pig; details: agonist alone
Description: as §1

SMILES: CN(CC(CCCN1CCC(O)(c2ccccc2)CC1)c1ccc(Cl)c(Cl)c1)C(=O)c1ccccc1.Cl (stereo not shown) [Example 22 of Application EP 474561, N-Methyl-N-[2-(3,4-dichlorophenyl)-5-(4-hydroxy-4-phenylpiperid-1-yl)pentyl]benzamide hydrochloride]
- selectivity / specificity for the human NK3 receptor [1]: high specificity

SMILES: Cl.O=C1CCC(CCN2CCC(O)(c3ccccc3)CC2)(c2ccc(Cl)c(Cl)c2)CN1Cc1ccccc1 (stereo not shown) [compound A, 5-[2-(4-hydroxy-4-phenylpiperid-1-yl)ethyl]-5-(3,4-dichlorophenyl)-1-benzylpiperid-2-one hydrochloride]
- selectivity / specificity for the human NK3 receptor [1]: not selective for the human NK3 receptor

SMILES: CSCC[C@H](NC(=O)[C@H](CC(C)C)NC(=O)CNC(=O)[C@H](Cc1ccccc1)N(C)C(=O)[C@H](Cc1ccccc1)NC(=O)[C@H](CC(=O)O)NC(=O)CCC(=O)O)C(N)=O [senktide] (HELM PEPTIDE1{[O=C(O)CCC(=O)[*:2]].D.F.[meF].G.L.M.[am]}$$$$V2.0)
- rotating behavior [2]: strong contralateral rotations
- hypertension [3]: induces a hypertension
